# Measurements taken from patent US9062071B2, “Substituted piperidines as HDM2 inhibitors” (Merck Sharp & Dohme Corp, priority 2011, dated 2015).
# Biological target: HDM2 protein (Homo sapiens, UniProt Q00987)
# Test: fluorescence polarization screening assay (FP IC50)
# Type: binding
# Details: class symbols
# Experimental: The compounds were evaluated to determine activity at the HDM2 protein by known methods such as the fluorescence polarization screening assay that measures the inhibitory concentration that achieves 50% of maximal activity (FP IC50) and the dissociation constant for inhibitor binding (FP Ki). [Zhang et al., J. Analytical Biochemistry 331: 138-146 (2004)].
# HDM2 protein, sequence (Q00987 whole entry): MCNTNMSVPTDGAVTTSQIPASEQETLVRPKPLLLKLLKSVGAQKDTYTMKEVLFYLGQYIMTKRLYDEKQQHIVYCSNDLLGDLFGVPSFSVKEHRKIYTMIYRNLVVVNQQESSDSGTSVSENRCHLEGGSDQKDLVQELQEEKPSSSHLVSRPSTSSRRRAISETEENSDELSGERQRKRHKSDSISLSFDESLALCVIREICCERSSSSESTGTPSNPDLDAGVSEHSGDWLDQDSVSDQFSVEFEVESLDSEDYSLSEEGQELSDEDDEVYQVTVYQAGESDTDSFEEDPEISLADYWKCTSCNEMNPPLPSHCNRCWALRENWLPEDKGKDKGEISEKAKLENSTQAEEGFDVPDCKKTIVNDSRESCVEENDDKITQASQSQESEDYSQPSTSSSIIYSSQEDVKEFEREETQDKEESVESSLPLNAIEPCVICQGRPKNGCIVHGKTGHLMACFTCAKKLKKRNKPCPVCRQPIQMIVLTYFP
row,Compound,IC50
1,"CCC[C@H]1N(C(=O)c2ncccc2C(F)(F)F)CCC[C@@]1(Oc1csc(C(F)(F)F)c1)C(=O)N1CCc2cc(F)ccc2C1CCC(=O)O (stereo partly drawn) [Compound A42, 3-(6-fluoro-2-{[(2R,3S)-2-propyl-1-{[3-(trifluoromethyl)pyridin-2-yl]carbonyl}-3-{[5-(trifluoromethyl)thiophen-3-yl]oxy}piperidin-3-yl]carbonyl}-1,2,3,4-tetrahydroisoquinolin-1-yl)propanoic acid]",1 to 100 nM
2,"CCC[C@H]1N(C(=O)c2ncccc2C(F)(F)F)CCC[C@@]1(Oc1csc(C(F)(F)F)c1)C(=O)N1CCc2cc(Cl)ccc2C1CC(C(=O)O)C(C)C (stereo partly drawn) [Compound A177, 2-[(6-chloro-2-{[(2R,3S)-2-propyl-1-{[3-(trifluoromethyl)pyridin-2-yl]carbonyl}-3-{[5-(trifluoromethyl)thiophen-3-yl]oxy}piperidin-3-yl]carbonyl}-1,2,3,4-tetrahydroisoquinolin-1-yl)methyl]-3-methylbutanoic acid]",101 to 20000 nM
3,"CCC[C@H]1N(C(=O)c2ncccc2C(F)(F)F)CCC[C@@]1(Oc1csc(C(F)(F)F)c1)C(=O)N1CCc2sc(C(=O)OCC)cc2C1 [Compound A9, ethyl 5-{[(2R,3S)-2-propyl-1-{[3-(trifluoromethyl)pyridin-2-yl]carbonyl}-3-{[5-(trifluoromethyl)thiophen-3-yl]oxy}piperidin-3-yl]carbonyl}-4,5,6,7-tetrahydrothieno[3,2-c]pyridine-2-carboxylate]",101 to 20000 nM
4,"CCC[C@H]1N(C(=O)c2ncccc2C(F)(F)F)CCC[C@@]1(Oc1csc(C(F)(F)F)c1)C(=O)N1Cc2ccc(F)cc2C[C@@H]1CC(=O)O [Compound A144, [(3R)-6-fluoro-2-{[(2R,3S)-2-propyl-1-{[3-(trifluoromethyl)pyridin-2-yl]carbonyl}-3-{[5-(trifluoromethyl)thiophen-3-yl]oxy}piperidin-3-yl]carbonyl}-1,2,3,4-tetrahydroisoquinolin-3-yl]acetic acid]",1 to 100 nM
5,"CCC[C@H]1N(C(=O)c2ncccc2C(F)(F)F)CCC[C@@]1(Oc1csc(C(F)(F)F)c1)C(=O)N1Cc2sc(Cl)cc2CC1C(=O)O (stereo partly drawn) [Compound A174, 2-chloro-6-{[(2R,3S)-2-propyl-1-{[3-(trifluoromethyl)pyridin-2-yl]carbonyl}-3-{[5-(trifluoromethyl)thiophen-3-yl]oxy}piperidin-3-yl]carbonyl}-4,5,6,7-tetrahydrothieno[2,3-c]pyridine-5-carboxylic acid]",1 to 100 nM
6,"CCC[C@H]1N(C(=O)c2ncccc2C(F)(F)F)CCC[C@@]1(Oc1csc(C(F)(F)F)c1)C(=O)N1CCc2cc(Cl)ccc2C1 [Compound A49, 6-chloro-2-{[(2R,3S)-2-propyl-1-{[3-(trifluoromethyl)pyridin-2-yl]carbonyl}-3-{[5-(trifluoromethyl)thiophen-3-yl]oxy}piperidin-3-yl]carbonyl}-1,2,3,4-tetrahydroisoquinoline]",1 to 100 nM
7,"CCC[C@H]1N(C(=O)c2ncccc2C(F)(F)F)CCC[C@@]1(Oc1csc(C(F)(F)F)c1)C(=O)N1CCc2sc(Cl)cc2C1CCCN1CCCC1 (stereo partly drawn) [Compound A33, 2-chloro-5-{[(2R,3S)-2-propyl-1-{[3-(trifluoromethyl)pyridin-2-yl]carbonyl}-3-{[5-(trifluoromethyl)thiophen-3-yl]oxy}piperidin-3-yl]carbonyl}-4-(3-pyrrolidin-1-ylpropyl)-4,5,6,7-tetrahydrothieno[3,2-c]pyridine]",101 to 20000 nM
8,"CCC[C@H]1N(C(=O)c2ncccc2C(F)(F)F)CCC[C@@]1(Oc1csc(C(F)(F)F)c1)C(=O)N1Cc2ccc(Cl)cc2C[C@@H]1CCCN1CCC[C@H]1COC [Compound A156, (3S)-6-chloro-3-{3-[(2S)-2-(methoxymethyl)pyrrolidin-1-yl]propyl}-2-{[(2R,3S)-2-propyl-1-{[3-(trifluoromethyl)pyridin-2-yl]carbonyl}-3-{[5-(trifluoromethyl)thiophen-3-yl]oxy}piperidin-3-yl]carbonyl}-1,2,3,4-tetrahydroisoquinoline]",1 to 100 nM
9,"O=C(c1ncccc1C(F)(F)F)N1CCC[C@@](Oc2csc(C(F)(F)F)c2)(C(=O)N2CCc3cc(Cl)ccc3C2)[C@H]1CCNC1CCOCC1 [Compound A112, N-{2-[(2R,3S)-3-[(6-chloro-3,4-dihydroisoquinolin-2(1H)-yl)carbonyl]-1-{[3-(trifluoromethyl)pyridin-2-yl]carbonyl}-3-{[5-(trifluoromethyl)thiophen-3-yl]oxy}piperidin-2-yl]ethyl}tetrahydro-2H-pyran-4-amine]",1 to 100 nM
10,"CCC[C@H]1N(C(=O)c2ncccc2C(F)(F)F)CCC[C@@]1(Oc1csc(C(F)(F)F)c1)C(=O)N1CCc2sc(Cl)cc2C1CCC(=O)NS(C)(=O)=O (stereo partly drawn) [Compound A36, 3-(2-chloro-5-{[(2R,3S)-2-propyl-1-{[3-(trifluoromethyl)pyridin-2-yl]carbonyl}-3-{[5-(trifluoromethyl)thiophen-3-yl]oxy}piperidin-3-yl]carbonyl}-4,5,6,7-tetrahydrothieno[3,2-c]pyridin-4-yl)-N-(methylsulfonyl) propanamide]",1 to 100 nM
11,"CCC[C@H]1N(C(=O)c2ncccc2C(F)(F)F)CCC[C@@]1(Oc1csc(C(F)(F)F)c1)C(=O)N1CCc2cc(F)ccc2C1C(=O)N1CCN(CCO)CC1 (stereo partly drawn) [Compound A93, 2-{4-[(6-fluoro-2-{[(2R,3S)-2-propyl-1-{[3-(trifluoromethyl)pyridin-2-yl]carbonyl}-3-{[5-(trifluoromethyl)thiophen-3-yl]oxy}piperidin-3-yl]carbonyl}-1,2,3,4-tetrahydroisoquinolin-1-yl)carbonyl]piperazin-1-yl}ethanol]",1 to 100 nM
12,"CCC[C@H]1N(C(=O)c2ncccc2C(F)(F)F)CCC[C@@]1(Oc1csc(C(F)(F)F)c1)C(=O)N1Cc2ccc(F)cc2C[C@@H]1CCN(C)C(=O)[C@@H](C)O [Compound A163, (2R)-N-{2-[(3R)-6-fluoro-2-{[(2R,3S)-2-propyl-1-{[3-(trifluoromethyl)pyridin-2-yl]carbonyl}-3-{[5-(trifluoromethyl)thiophen-3-yl]oxy}piperidin-3-yl]carbonyl}-1,2,3,4-tetrahydroisoquinolin-3-yl]ethyl}-2-hydroxy-N-methylpropanamide]",1 to 100 nM
13,"CCC[C@H]1N(C(=O)c2ncccc2C(F)(F)F)CCC[C@@]1(Oc1csc(C(F)(F)F)c1)C(=O)N1CCc2ccc(Br)cc2C1 [Compound A142, 7-bromo-2-{[(2R,3S)-2-propyl-1-{[3-(trifluoromethyl)pyridin-2-yl]carbonyl}-3-{[5-(trifluoromethyl)thiophen-3-yl]oxy}piperidin-3-yl]carbonyl}-1,2,3,4-tetrahydroisoquinoline]",101 to 20000 nM
14,"CCC[C@H]1N(C(=O)c2ncccc2C(F)(F)F)CCC[C@@]1(Oc1csc(C(F)(F)F)c1)C(=O)N1CCc2ccc(C#N)cc2C1 [Compound A5, 2-{[(2R,3S)-2-propyl-1-{[3-(trifluoromethyl)pyridin-2-yl]carbonyl}-3-{[5-(trifluoromethyl)thiophen-3-yl]oxy}piperidin-3-yl]carbonyl}-1,2,3,4-tetrahydroisoquinoline-7-carbonitrile]",101 to 20000 nM
15,"CCC[C@H]1N(C(=O)c2ncccc2C(F)(F)F)CCC[C@@]1(Oc1csc(C(F)(F)F)c1)C(=O)N1CCc2cc(Cl)ccc2[C@@H]1CCC(=O)N1CCC(C(=O)O)CC1 [Compound A99, 1-{3-[(1S)-6-chloro-2-{[(2R,3S)-2-propyl-1-{[3-(trifluoromethyl)pyridin-2-yl]carbonyl}-3-{[5-(trifluoromethyl)thiophen-3-yl]oxy}piperidin-3-yl]carbonyl}-1,2,3,4-tetrahydroisoquinolin-1-yl]propanoyl}piperidine-4-carboxylic acid]",1 to 100 nM
16,"CCC[C@H]1N(C(=O)c2ncccc2C(F)(F)F)CCC[C@@]1(Oc1csc(C(F)(F)F)c1)C(=O)N1CCc2sccc2C1 [Compound A8, 5-{[(2R,3S)-2-propyl-1-{[3-(trifluoromethyl)pyridin-2-yl]carbonyl}-3-{[5-(trifluoromethyl)thiophen-3-yl]oxy}piperidin-3-yl]carbonyl}-4,5,6,7-tetrahydrothieno[3,2-c]pyridine]",101 to 20000 nM
17,"CCC[C@H]1N(C(=O)c2ncccc2C(F)(F)F)CCC[C@@]1(Oc1csc(C(F)(F)F)c1)C(=O)N1Cc2ccc(Cl)cc2C[C@@H]1CCC(=O)NC [Compound A136, 3-[(3S)-6-chloro-2-{[(2R,3S)-2-propyl-1-{[3-(trifluoromethyl)pyridin-2-yl]carbonyl}-3-{[5-(trifluoromethyl)thiophen-3-yl]oxy}piperidin-3-yl]carbonyl}-1,2,3,4-tetrahydroisoquinolin-3-yl]-N-methylpropanamide]",1 to 100 nM
18,"COCC1c2ccc(Cl)cc2CCN1C(=O)[C@]1(Oc2csc(C(F)(F)F)c2)CCCN(C(=O)c2ncccc2C(F)(F)F)[C@@H]1CC(=O)O (stereo partly drawn) [Compound A18, [(2R,3S)-3-{[6-chloro-1-(methoxymethyl)-3,4-dihydroisoquinolin-2(1H)-yl]carbonyl}-1-{[3-(trifluoromethyl)pyridin-2-yl]carbonyl}-3-{[5-(trifluoromethyl)thiophen-3-yl]oxy}piperidin-2-yl]acetic acid]",1 to 100 nM
19,"CCC[C@H]1N(C(=O)c2ncccc2C(F)(F)F)CCC[C@@]1(Oc1csc(C(F)(F)F)c1)C(=O)N1Cc2ccc(F)cc2C[C@@H]1C(=O)O [Compound A123, (3R)-6-fluoro-2-{[(2R,3S)-2-propyl-1-{[3-(trifluoromethyl)pyridin-2-yl]carbonyl}-3-{[5-(trifluoromethyl)thiophen-3-yl]oxy}piperidin-3-yl]carbonyl}-1,2,3,4-tetrahydroisoquinoline-3-carboxylic acid]",1 to 100 nM
20,"CCC[C@H]1N(C(=O)c2ncccc2C(F)(F)F)CCC[C@@]1(Oc1csc(C(F)(F)F)c1)C(=O)N1Cc2ccc(Cl)cc2C[C@@H]1CCCN1CCOCC1 [Compound A155, (3S)-6-chloro-3-(3-morpholin-4-ylpropyl)-2-{[(2R,3S)-2-propyl-1-{[3-(trifluoromethyl)pyridin-2-yl]carbonyl}-3-{[5-(trifluoromethyl)thiophen-3-yl]oxy}piperidin-3-yl]carbonyl}-1,2,3,4-tetrahydroisoquinoline]",1 to 100 nM
